Our source for the inhibition values is EP4768480A1, “ALKOXY THIOPHENE ACYL ARYLAMINE COMPOUNDS AND USE THEREOF” (priority 2024, dated 2025).

The structures appear in SMILES notation.

The first test addresses T1, SMS2 (Homo sapiens, UniProt Q8NHU3).
T1 construct: CAO, Yu research team, National Protein Scientific Center (Shanghai); supplied by an outside laboratory, not a commercial vendor
T1 sequence (Q8NHU3 1-365): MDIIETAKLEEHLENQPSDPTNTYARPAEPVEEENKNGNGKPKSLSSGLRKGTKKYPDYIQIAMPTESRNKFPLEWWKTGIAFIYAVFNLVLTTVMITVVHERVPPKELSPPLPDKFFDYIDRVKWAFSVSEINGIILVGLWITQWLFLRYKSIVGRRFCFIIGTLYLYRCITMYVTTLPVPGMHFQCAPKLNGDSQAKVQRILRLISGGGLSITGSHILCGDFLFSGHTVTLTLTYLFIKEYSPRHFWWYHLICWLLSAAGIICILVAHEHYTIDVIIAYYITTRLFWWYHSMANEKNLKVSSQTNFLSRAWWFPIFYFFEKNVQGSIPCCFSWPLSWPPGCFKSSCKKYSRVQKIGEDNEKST
Briefly: SMS2 inhibitory activity in vitro, HPLC fluorescence quantitative detection (C6-NBD-ceramide to C6-NBD-SM). To be noted: 1 µM test compound; SMS2 pure enzyme; 37°C, 30 minutes; average of two measurements; read-out: Inhibition rate on SMS2 at C/µM 1. Type of test: biochemical. The text has this: • 1. Electro-thermostatic water bath, from Shanghai Yiheng Technology Co., Ltd.); • 2. Vortex Mixer, with model ID of XW-80A, from Shanghai Jingke Industrial Co., Ltd.; • 3. […] High Performance Liquid Chromatography Agilent 1100, equipped with a quaternary pump, vacuum degassing, and FLD fluorescence detector, from Agilent Technologies, Palo Alto, CA, USA; • 5. HPLC column COSMOSIL 5C18-MS-II (4.6mm I.D. X 250mm); • 6. […] The organic solvents used in the present disclosure were purchased from Shanghai National Reagent Company, wherein methanol was pure chromatography; water was ultra-pure water which is filtrated by Milli-Q pump, deionized and ultra-filtrated with 0.22 µm membrane; and other biological consumables were purchased from domestic companies; • 8. Preparation of test compound solutions: each test compound was accurately weighed and dissolved in an appropriate volume of DMSO to prepare a 10 mmol/L stock solution. The stock solution was then diluted with an appropriate volume of DMSO to achieve the desired working concentration; • 9. SMS2 pure enzyme, DDM solution and buffer solution were provided by CAO, Yu research team from National Protein Scientific Center (Shanghai).
79 µl of the diluted enzyme solution were transferred into a 1.5 mL EP tube, 1 µl of inhibitor DMSO solution were added thereto, vortexing for 15 seconds, followed by standing at room temperature for 5 minutes. 20 µl of a mixed solution of DMPC and C6-NBD-ceramide were added, vortexing for 15 seconds, and incubated at 37°C for 30 minutes. 200 µl of anhydrous ethanol were added to quench the reaction, vortexing for 15 seconds. 200 µl of the reaction solution were taken out and stored at 4°C and avoided light for HPLC detection.
The peak area values of A(sm) and A(ceramide) in the HPLC chromatogram corresponding to C6-NBD-SM and C6-NBD-Ceramide in the DMSO group and inhibitor group samples were analyzed and recorded, and the inhibition rate of the test compound was calculated according to the following formula. Inhibition rate = (Peak area values of DMSO group−Peak area values of Inhibitor group)/(Peak area values of DMSO group) × 100% [formula]
Take `O=C(Nc1cccnc1)c1sccc1OCc1ccccc1OC(F)(F)F` [1-53, 3-(2-(trifluoromethoxy)benzyloxy)-N-(pyridin-3-yl)thiophene-2-carboxamide]: the inhibition at 1 µM is 87%.

Turning to `COc1cccc(COc2ccsc2C(=O)Nc2cccnc2)c1` [1-58, 3-(3-methoxybenzyloxy)-N-(pyridin-3-yl)thiophene-2-carboxamide], the inhibition at 1 µM turned out to be 70%.

`O=C(Nc1cccnc1)c1sccc1OCc1ccccc1C(F)(F)F` [1-59, 3-(2-(trifluoromethyl)benzyloxy)-N-(pyridin-3-yl)thiophene-2-carboxamide]: the inhibition at 1 µM was found to be 71%.

Consider `Cc1cccc(C)c1COc1ccsc1C(=O)Nc1cccnc1` [1-60, 3-(2,6-dimethylbenzyloxy)-N-(pyridin-3-yl)thiophene-2-carboxamide], for which the inhibition at 1 µM worked out at 78%.

On to `COc1cccc(Cl)c1COc1ccsc1C(=O)Nc1cccnc1` [1-63, 3-(2-chloro-6-methoxybenzyloxy)-N-(pyridin-3-yl)thiophene-2-carboxamide], for which the inhibition at 1 µM came to 80%.

`O=C(Nc1cccnc1)c1sccc1OCc1csc2ccccc12` [1-66, 3-(benzo[b]thiophen-3-ylmethoxy)-N-(pyridin-3-yl)thiophene-2-carboxamide]: the inhibition at 1 µM was determined as 86%.

`O=C(Nc1cccnc1)c1sccc1OCc1c(F)c(F)cc(F)c1F` [1-67, 3-(2,3,5,6-tetrafluorobenzyloxy)-N-(pyridin-3-yl)thiophene-2-carboxamide]: the inhibition at 1 µM was 67%.

Consider `O=C(Nc1cccnc1)c1sccc1OCc1ccccc1OCCc1ccccc1` [1-70, 3-(2-(phenylethoxy)benzyloxy)-N-(pyridin-3-yl)thiophene-2-carboxamide], for which the inhibition at 1 µM is 95%.

For `CCCCCCOc1cc(Cl)ccc1COc1ccsc1C(=O)Nc1cccnc1` [1-71, 3-(4-chloro-2-(hexyloxy)benzyloxy)-N-(pyridin-3-yl)thiophene-2-carboxamide], the inhibition at 1 µM came out at 95%.

As for `CCCCCCCOc1cc(Cl)ccc1COc1ccsc1C(=O)Nc1cccnc1` [1-72, 3-(4-chloro-2-(heptyloxy)benzyloxy)-N-(pyridin-3-yl)thiophene-2-carboxamide], the inhibition at 1 µM turned out to be 90%.

On to `CCCCCCOc1ccc(Cl)cc1COc1ccsc1C(=O)Nc1cccnc1` [1-73, 3-(5-chloro-2-(hexyloxy)benzyloxy)-N-(pyridin-3-yl)thiophene-2-carboxamide], for which the inhibition at 1 µM stood at 90%.

Regarding `CCCCCCCOc1ccc(Cl)cc1COc1ccsc1C(=O)Nc1cccnc1` [1-74, 3-(5-chloro-2-(heptyloxy)benzyloxy)-N-(pyridin-3-yl)thiophene-2-carboxamide], the inhibition at 1 µM came to 98%.

`O=C(Nc1cccnc1)c1sccc1OCc1ccccc1OCCCCCl` [1-75, 3-(2-(4-chlorobutoxy)benzyloxy)-N-(pyridin-3-yl)thiophene-2-carboxamide]: the inhibition at 1 µM turned out to be 97%.

In the case of `O=C(Nc1cccnc1)c1sccc1OCc1ccccc1OCCCCCCCl` [1-76, 3-(2-(6-chlorohexyloxy)benzyloxy)-N-(pyridin-3-yl)thiophene-2-carboxamide], the inhibition at 1 µM was 93%.

Regarding `CCCCCCOc1c(Cl)cccc1COc1ccsc1C(=O)Nc1cccnc1` [1-80, 3-(3-chloro-2-(hexyloxy)benzyloxy)-N-(pyridin-3-yl)thiophene-2-carboxamide], the inhibition at 1 µM amounted to 97%.

On to `CCc1ccccc1COc1ccsc1C(=O)Nc1cccnc1` [1-81, 3-(2-ethylbenzyloxy)-N-(pyridin-3-yl)thiophene-2-carboxamide], for which the inhibition at 1 µM was found to be 73%.

`CC(C)Oc1ccccc1COc1ccsc1C(=O)Nc1cccnc1` [1-82, 3-(2-isopropoxybenzyloxy)-N-(pyridin-3-yl)thiophene-2-carboxamide]: the inhibition at 1 µM was 80%.

On to `CCOC(=O)c1ccccc1COc1ccsc1C(=O)Nc1cccnc1` [1-84], for which the inhibition at 1 µM was found to be 63%.

Turning to `O=C(Nc1cccnc1)c1sccc1OCc1ccccc1OC(F)F` [1-85, 3-(2-difluoro-methoxybenzyloxy)-N-(pyridin-3-yl)thiophene-2-carboxamide], the inhibition at 1 µM came out at 73%.

`O=C(Nc1cccnc1)c1sccc1OCc1ccccc1Br` [1-86, 3-(2-bromobenzyloxy)-N-(pyridin-3-yl)thiophene-2-carboxamide]: the inhibition at 1 µM was 86%.

As for `O=C(Nc1cccnc1)c1sccc1OCc1ccccc1I` [1-87, 3-(yloxy)-N-(pyridin-3-yl)thiophene-2-carboxamide], the inhibition at 1 µM was determined as 82%.

Take `Cc1ccc(F)cc1COc1ccsc1C(=O)Nc1cccnc1` [1-88, 3-(5-fluoro-2-methylbenzyloxy)-N-(pyridin-3-yl)thiophene-2-carboxamide]: the inhibition at 1 µM is 76%.

In the case of `O=C(Nc1cccnc1)c1sccc1OCc1cc(Cl)ccc1Cl` [1-89, 3-(2,5-dichlorobenzyloxy)-N-(pyridin-3-yl)thiophene-2-carboxamide], the inhibition at 1 µM stood at 74%.

In the case of `O=C(Nc1cncc(F)c1)c1sccc1OCc1ccccc1` [1-92, 3-benzyloxy-N-(5-fluoropyridin-3-yl)thiophene-2-carboxamide], the inhibition at 1 µM stood at 50%.

Staying with this test, now noted: 10 µM test compound; SMS2 pure enzyme; 37°C, 30 minutes; average of two measurements; read-out: Inhibition rate on SMS2 at C/µM 10.
Take `O=C(Nc1cccnc1)c1sccc1OCc1ccc(OC(F)(F)F)cc1` [1-54, 3-(4-(trifluoromethoxy)benzyloxy)-N-(pyridin-3-yl)thiophene-2-carboxamide]: the inhibition at 10 µM was found to be 57%.

Take `O=C(Nc1cccnc1)c1sccc1OCc1cccc(OC(F)(F)F)c1` [1-55, 3-(3-(trifluoromethoxy)benzyloxy)-N-(pyridin-3-yl)thiophene-2-carboxamide]: the inhibition at 10 µM came out at 65%.

For `COc1ccc(COc2ccsc2C(=O)Nc2cccnc2)cc1` [1-56, 3-(4-methoxybenzyloxy)-N-(pyridin-3-yl)thiophene-2-carboxamide], the inhibition at 10 µM was found to be 50%.

Regarding `O=C(Nc1ccccn1)c1sccc1OCc1ccccc1` [1-61, 3-benzyloxy-N-(pyridin-2-yl)thiophene-2-carboxamide], the inhibition at 10 µM was determined as 50%.

On to `CN(C(=O)c1sccc1OCc1ccccc1)c1cccnc1` [1-62, 3-benzyloxy-N-methyl-(pyridin-3-yl)thiophene-2-carboxamide], for which the inhibition at 10 µM is 57%.

Consider `O=C(Nc1cncnc1)c1sccc1OCc1ccccc1` [1-64, 3-benzyloxy-N-(pyrimidin-5-yl)thiophene-2-carboxamide], for which the inhibition at 10 µM is 51%.

As for `O=C(Nc1cncs1)c1sccc1OCc1ccccc1` [1-65, 3-benzyloxy-N-(thiazol-5-yl)thiophene-2-carboxamide], the inhibition at 10 µM stood at 61%.

Take `Cc1ncccc1NC(=O)c1sccc1OCc1ccccc1` [1-68, 3-benzyloxy-N-(2-methylpyridin-3-yl)thiophene-2-carboxamide]: the inhibition at 10 µM was 50%.

In the case of `Cc1ccncc1NC(=O)c1sccc1OCc1ccccc1` [1-69, 3-benzyloxy-N-(4-methylpyridin-3-yl)thiophene-2-carboxamide], the inhibition at 10 µM stood at 65%.

`O=C(Nc1cccnc1)c1sccc1OCc1cccs1` [1-77, 3-(thiophen-2-ylmethoxy)-N-(pyridin-3-yl)thiophene-2-carboxamide]: the inhibition at 10 µM amounted to 65%.

Regarding `O=C(Nc1cccnc1)c1sccc1OCc1ccsc1` [1-78, 3-(thiophen-3-ylmethoxy)-N-(pyridin-3-yl)thiophene-2-carboxamide], the inhibition at 10 µM was 59%.

On to `CCCCCCOc1cccc(COc2ccsc2C(=O)Nc2cccnc2)c1` [1-79, 3-(3-(hexyloxy)benzyloxy)-N-(pyridin-3-yl)thiophene-2-carboxamide], for which the inhibition at 10 µM was found to be 60%.

On to `Cc1cncc(NC(=O)c2sccc2OCc2ccccc2)c1` [1-83, 3-benzyloxy-N-(5-methylpyridin-3-yl)thiophene-2-carboxamide], for which the inhibition at 10 µM amounted to 50%.

Turning to `O=C(Nc1cnccc1Cl)c1sccc1OCc1ccccc1` [1-91, 3-benzyloxy-N-(4-chloropyridin-3-yl)thiophene-2-carboxamide], the inhibition at 10 µM amounted to 56%.
